Source: US6737383B1, “Herbicidal oxadiazolidines” (priority 1999, dated 2004)

Legend:
blackgrass = assay: Test B pre/postemergence blackgrass; type: in vivo, Alopecurus myosuroides
In short: (§1)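 Herbicidal effect was estimated by eye on a ten-point control scale after plants spent twelve to sixteen days in a greenhouse following soil or foliar treatment. Foliar sprays targeted plants at one to four leaves; all doses were formulated in a non-phytotoxic solvent with surfactant.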

surinam grass = assay: Test B pre/postemergence surinam grass; type: in vivo, Brachiaria decumbens
In short: as §1

cocklebur = assay: Test B pre/postemergence cocklebur; type: in vivo, Xanthium strumarium
In short: as §1

corn = assay: Test B pre/postemergence corn; type: in vivo, Zea mays
In short: as §1

crabgrass = assay: Test B pre/postemergence crabgrass; type: in vivo, Digitaria sanguinalis
In short: as §1

giant foxtail = assay: Test B pre/postemergence giant foxtail; type: in vivo, Setaria faberii
In short: as §1

morningglory = assay: Test B pre/postemergence morningglory; type: in vivo, Ipomoea hederacea
In short: as §1

pigweed = assay: Test B pre/postemergence pigweed; type: in vivo, Amaranthus retroflexus
In short: as §1

rape = assay: Test B pre/postemergence rape; type: in vivo, Brassica napus
In short: as §1

soybean = assay: Test B pre/postemergence soybean; type: in vivo, Glycine max
In short: as §1

sugar beet = assay: Test B pre/postemergence sugar beet; type: in vivo, Beta vulgaris
In short: as §1

velvetleaf = assay: Test B pre/postemergence velvetleaf; type: in vivo, Abutilon theophrasti
In short: as §1

wheat = assay: Test B pre/postemergence wheat; type: in vivo, Triticum aestivum
In short: as §1

wild oat = assay: Test B pre/postemergence wild oat; type: in vivo, Avena fatua
In short: as §1

purple nutsedge = assay: Test B pre/postemergence purple nutsedge; type: in vivo, Cyperus rotundus
In short: as §1

rice = assay: Test B flood test rice; type: in vivo, Oryza sativa
In short: (§2)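 Plants were grown to the 2-leaf stage before treatment with test chemical, then held in a greenhouse for twelve to sixteen days. Injury was visually rated against untreated controls on a 0–10 scale, where 0 is no effect and 10 is complete control.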

smallflower flatsedge = assay: Test B flood test smallflower flatsedge; type: in vivo, Cyperus difformis
In short: as §2

duck salad = assay: Test B flood test duck salad; type: in vivo, Heteranthera limosa; conditions: for Plant response rating, Ducksalad: scale 0 to 10, 0 is no effect, 10 is complete control; for Ducksalad plant response rating: scale of 0 to 10 where 0 is no effect and 10 is complete control
In short: as §2

bamyardgrass = assay: Test B flood test barnyardgrass; type: in vivo, Echinochloa crus-galli; conditions: for Plant response rating, Barnyardgrass: scale 0 to 10, 0 is no effect, 10 is complete control; for Barnyardgrass plant response rating: scale of 0 to 10 where 0 is no effect and 10 is complete control
In short: as §2

[1] = Postemergence, Rate 125 g/ha, scale 0 to 10, 0 is no effect, 10 is complete control
[2] = Postemergence, Rate 250 g/ha, scale 0 to 10, 0 is no effect, 10 is complete control
[3] = Postemergence, Rate 500 g/ha, scale of 0 to 10 where 0 is no effect and 10 is complete control
[4] = Preemergence, Rate 62 g/ha, scale 0 to 10 (0 no effect, 10 complete control)
[5] = Preemergence, Rate 125 g/ha, scale of 0 to 10 where 0 is no effect and 10 is complete control
[6] = Preemergence, Rate 250 g/ha, scale of 0 to 10 where 0 is no effect and 10 is complete control
[7] = Preemergence, Rate 500 g/ha, scale 0 to 10, 0 is no effect, 10 is complete control
[8] = Rate 62 g/ha, Postemergence, scale of 0 to 10 where 0 is no effect and 10 is complete control
[9] = Preemergence, Rate 250 g/ha, scale 0 to 10, 0 is no effect, 10 is complete control
[10] = Postemergence section (flood test species), Rate 500 g/ha, scale of 0 to 10 where 0 is no effect and 10 is complete control
[11] = flood test species, listed under Postemergence, Rate 250 g/ha, scale 0 to 10, 0 is no effect, 10 is complete control
[12] = Postemergence (flood test), Rate 125 g/ha
[13] = Postemergence section (flood test species), Rate 500 g/ha
[14] = Rate 62 g/ha, Postemergence (flood test species)
[15] = flood test species, listed under Postemergence, Rate 250 g/ha

SMILES: C=C(C)CCn1c(=O)on(C(=O)N(c2ccccc2)C(C)C)c1=O [Compound 418]
- Plant response rating, Blackgrass (blackgrass; [1]): 4
- Plant response rating, Blackgrass (blackgrass; [2]): 4
- Blackgrass plant response rating (blackgrass; [3]): 6
- Plant response rating, Blackgrass (blackgrass; [4]): 4
- Plant response rating, Blackgrass (blackgrass; [5]): 4
- Blackgrass plant response rating (blackgrass; [6]): 7
- Blackgrass plant response rating (blackgrass; [7]): 0
- Blackgrass plant response rating (blackgrass; [8]): 2
- Plant response rating, B. signalgrass (surinam grass; [1]): 0
- Plant response rating, B. signalgrass (surinam grass; [2]): 0
- B. signalgrass plant response rating (surinam grass; [3]): 2
- Plant response rating, B. signalgrass (surinam grass; [4]): 0
- Plant response rating, B. signalgrass (surinam grass; [5]): 3
- B. signalgrass plant response rating (surinam grass; [6]): 6
- B. signalgrass plant response rating (surinam grass; Preemergence, Rate 500 g/ha, scale of 0 to 10 where 0 is no effect and 10 is complete control): 6
- B. signalgrass plant response rating (surinam grass; [8]): 0
- Plant response rating, Cocklebur (cocklebur; [1]): 0
- Plant response rating, Cocklebur (cocklebur; [2]): 0
- Cocklebur plant response rating (cocklebur; [3]): 0
- Plant response rating, Cocklebur (cocklebur; [4]): 0
- Plant response rating, Cocklebur (cocklebur; [5]): 0
- Cocklebur plant response rating (cocklebur; [9]): 0
- Cocklebur plant response rating (cocklebur; [7]): 0
- Cocklebur plant response rating (cocklebur; [8]): 0
- Plant response rating, Corn (corn; [1]): 0
- Plant response rating, Corn (corn; [2]): 0
- Corn plant response rating (corn; [3]): 0
- Plant response rating, Corn (corn; [4]): 0
- Plant response rating, Corn (corn; [5]): 0
- Corn plant response rating (corn; [9]): 2
- Corn plant response rating (corn; [8]): 0
- Plant response rating, Crabgrass (crabgrass; [1]): 0
- Plant response rating, Crabgrass (crabgrass; [2]): 3
- Crabgrass plant response rating (crabgrass; [3]): 6
- Plant response rating, Crabgrass (crabgrass; [4]): 6
- Plant response rating, Crabgrass (crabgrass; [5]): 8
- Crabgrass plant response rating (crabgrass; [9]): 10
- Crabgrass plant response rating (crabgrass; [7]): 10
- Crabgrass plant response rating (crabgrass; [8]): 0
- Plant response rating, Giant foxtail (giant foxtail; [1]): 0
- Plant response rating, Giant foxtail (giant foxtail; [2]): 8
- Giant foxtail plant response rating (giant foxtail; [3]): 9
- Plant response rating, Giant foxtail (giant foxtail; [4]): 7
- Plant response rating, Giant foxtail (giant foxtail; [5]): 8
- Giant foxtail plant response rating (giant foxtail; [9]): 10
- Giant foxtail plant response rating (giant foxtail; [7]): 10
- Giant foxtail plant response rating (giant foxtail; [8]): 0
- Plant response rating, Morningglory (morningglory; [2]): 8
- Morningglory plant response rating (morningglory; [3]): 10
- Plant response rating, Morningglory (morningglory; [4]): 0
- Plant response rating, Morningglory (morningglory; [5]): 0
- Morningglory plant response rating (morningglory; [9]): 0
- Morningglory plant response rating (morningglory; [7]): 0
- Plant response rating, Redroot pigweed (pigweed; [2]): 0
- Redroot pigweed plant response rating (pigweed; [3]): 0
- Plant response rating, Redroot pigweed (pigweed; [4]): 2
- Plant response rating, Redroot pigweed (pigweed; [5]): 3
- Redroot pigweed plant response rating (pigweed; [9]): 8
- Redroot pigweed plant response rating (pigweed; [7]): 8
- Plant response rating, Rape (rape; [2]): 0
- Rape plant response rating (rape; [3]): 0
- Plant response rating, Rape (rape; [4]): 0
- Plant response rating, Rape (rape; [5]): 0
- Rape plant response rating (rape; [9]): 0
- Rape plant response rating (rape; [7]): 9
- Plant response rating, Soybean (soybean; [2]): 4
- Soybean plant response rating (soybean; [3]): 6
- Plant response rating, Soybean (soybean; [4]): 0
- Plant response rating, Soybean (soybean; [5]): 0
- Soybean plant response rating (soybean; [9]): 0
- Soybean plant response rating (soybean; [7]): 0
- Plant response rating, Sugarbeets (sugar beet; [2]): 0
- Sugarbeets plant response rating (sugar beet; [3]): 0
- Plant response rating, Sugarbeets (sugar beet; [4]): 0
- Plant response rating, Sugarbeets (sugar beet; [5]): 2
- Sugarbeets plant response rating (sugar beet; [9]): 2
- Sugarbeets plant response rating (sugar beet; [7]): 2
- Plant response rating, Velvetleaf (velvetleaf; [2]): 0
- Velvetleaf plant response rating (velvetleaf; [3]): 0
- Plant response rating, Velvetleaf (velvetleaf; [4]): 0
- Plant response rating, Velvetleaf (velvetleaf; [5]): 3
- Velvetleaf plant response rating (velvetleaf; [9]): 5
- Velvetleaf plant response rating (velvetleaf; [7]): 6
- Wheat plant response rating (wheat; [3]): 0
- Plant response rating, Wheat (wheat; [4]): 0
- Plant response rating, Wheat (wheat; [5]): 0
- Wheat plant response rating (wheat; [9]): 0
- Wheat plant response rating (wheat; [7]): 2
- Wild oats plant response rating (wild oat; [3]): 3
- Plant response rating, Wild oats (wild oat; [4]): 0
- Plant response rating, Wild oats (wild oat; [5]): 0
- Wild oats plant response rating (wild oat; [9]): 0
- Wild oats plant response rating (wild oat; [7]): 0
- Plant response rating, Nutsedge (purple nutsedge; [2]): 0
- Nutsedge plant response rating (purple nutsedge; [3]): 0
- Plant response rating, Nutsedge (purple nutsedge; [4]): 0
- Plant response rating, Nutsedge (purple nutsedge; [5]): 0
- Nutsedge plant response rating (purple nutsedge; [9]): 0
- Nutsedge plant response rating (purple nutsedge; [7]): 0
- Rice plant response rating (rice; [10]): 0
- Plant response rating, Rice (rice; [11]): 0
- S. Flatsedge plant response rating (smallflower flatsedge; [10]): 4
- Plant response rating, S. Flatsedge (smallflower flatsedge; [11]): 4
- Plant response rating, Ducksalad (duck salad; [12]): 0
- Ducksalad plant response rating (duck salad; [13]): 2
- Ducksalad plant response rating (duck salad; [14]): 0
- Plant response rating, Ducksalad (duck salad; [15]): 2
- Plant response rating, Barnyardgrass (bamyardgrass; [12]): 0
- Barnyardgrass plant response rating (bamyardgrass; [13]): 0
- Barnyardgrass plant response rating (bamyardgrass; [14]): 0
- Plant response rating, Barnyardgrass (bamyardgrass; [15]): 0
